Results from US5342850A, “Thiazolidine-2,4-dione derivatives, their salts and their preparation processes” (Kyorin Pharmaceutical Co., Ltd., priority 1991, dated 1994).

Key:
[1] = system: sorbitol content in retina; test: Inhibition on sorbitol accumulation in retina of diabetic rats; type: in vivo; conditions: Rattus norvegicus, po, 336 h, streptozotocin rats, 4, 16 or 64 mg/kg/day p.o. once daily 2 weeks
Protocol: (§1) Inhibition on sorbitol accumulation in tissues of diabetic rats
(§2) After diabetic rats were prepared by injecting streptozotocin, they were orally administered with the compound of Example 23 once daily 2 weeks at 4, 16 or 64 mg/kg/day, respectively. The sorbitol content in nerve and retina was determined to calculate ED50 value (Table 4).

[2] = system: sorbitol content in nerve; test: Inhibition on sorbitol accumulation in nerve of diabetic rats; type: in vivo; conditions: Rattus norvegicus, po, 336 h, streptozotocin rats, 4, 16 or 64 mg/kg/day p.o. once daily 2 weeks
Protocol: as §1, §2

[3] = system: blood glucose; test: Enhancement of insulin sensitivity in rats; type: in vivo; conditions: 10 mg/kg/day p.o. once daily for 5 days; fasted 18 hours; insulin 0.1 unit/kg i.p.; n=5; *P < 0.01
Protocol: Blood samples were collected from the tail vein 0 and 1 hour after the injection of insulin for the determination of blood glucose (Table 1).

[4] = system: blood glucose; test: Improvement of glucose tolerance in genetically obese mice (OGTT); type: in vivo, Genetically obese mice (CS57BL ob/ob mice); conditions: fasted 18 hours, 2 g/kg glucose orally, blood at 0, 30, 60, 120 min
Protocol: Improvement of glucose tolerance in genetically obese mice
Genetically obese mice (CS57BL ob/ob mice) were orally administered with the compound of Example 23 once daily for 5 days at 10, 30 or 100 mg/kg/day, respectively. They were fasted for 18 hours and then 2 g/kg of glucose was orally administered. Blood samples were collected from the tail vein 0, 30, 60 and 120 minutes after the administration of glucose for the determination of blood glucose (Table 2).

[5] = target: T1, aldose reductase extracted from rat lens (Rattus norvegicus, UniProt P07943); test: Inhibition of aldose reductase in vitro; type: biochemical; conditions: method of Hyman and Kinoshita
T1 construct: aldose reductase extracted from rat lens; from tissue; host or cells: rat lens
Excerpt: Inhibition of aldose reductase in vitro
According to the method of Hyman and Kinoshita (J. Biol. Chem., 240, 877, 1965), inhibitory activity of the compound of Example 23 on aldose reductase extracted from rat lens was investigated. As a result, the following IC50 value was obtained (Table 3).

With `O=C1NC(=O)C(c2ccc(NC(=O)c3ccc(Cl)cc3Cl)cc2)S1` (stereo not shown) [Example 23] the ED50 [1] was 26.5 mg/kg, the ED50 [2] was 14.5 mg/kg and the “0 hour value - 1 hour value (blood glucose)” value [3] was 19.4 ± 1.5 mg %. The “OGTT (% of control)” value ([4]; 10 mg/kg/day p.o. once daily for 5 days) was 93.5 % of control, the “OGTT (% of control)” value ([4]; 30 mg/kg/day p.o. once daily for 5 days) was 89.2 % of control and the “OGTT (% of control)” value ([4]; 100 mg/kg/day p.o. once daily for 5 days) was 74.1 % of control. For the same compound, the IC50 [5] was 90 nM.
